Test results from US20070254903A1, “Novel Spiroindoline or Spiroisoquinoline Compounds, Methods of Use and Compositions Thereof” (ARENA PHARMACEUTICALS, INC., priority 2003, published 2007).

Target: T1, human Mas receptor (Homo sapiens, UniProt P04201)
T1 construct: expressed in transfected cells
T1 sequence (P04201 1-325): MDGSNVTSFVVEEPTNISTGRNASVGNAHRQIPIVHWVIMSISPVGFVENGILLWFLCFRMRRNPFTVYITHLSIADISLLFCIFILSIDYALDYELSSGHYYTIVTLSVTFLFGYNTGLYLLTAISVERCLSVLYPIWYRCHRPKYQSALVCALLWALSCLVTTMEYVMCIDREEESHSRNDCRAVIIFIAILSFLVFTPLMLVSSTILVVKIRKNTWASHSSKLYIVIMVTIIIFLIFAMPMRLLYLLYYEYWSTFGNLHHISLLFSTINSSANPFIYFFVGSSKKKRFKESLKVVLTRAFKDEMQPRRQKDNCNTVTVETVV
Assay: Mas receptor IP3 assay (inverse agonist assay)
Format: cell-based
Conditions: HEK293 cells over-expressing human Mas receptor; average from several experiments
Procedure: The Mas receptor IP3 assay was performed using a mammalian cell line (HEK293) which was transfected with a plasmid containing the human Mas receptor and selected for stable expression of the receptor. For the inverse agonist assay, higher levels of Mas receptor constitutive activity were desired. To achieve this, Mas receptor expression levels were increased by transiently transfecting the same Mas receptor stable cell line with additional human Mas receptor plasmid DNA following standard procedures. These cells were used in the Mas receptor IP3 assay approximately 24 hours post-transfection.
Cells were split into 96-well plates (50,000 cells/well) and allowed to attach for a period of 6 hours. The growth medium was then replaced with medium supplemented with 4 μCi/ml [^3H]myo-inositol (100 μl; Perkin Elmer Life Sciences) and the cells were allowed to incubate for approximately 20 hours. Test compounds were serially diluted in inositol-free media containing 10 mM LiCl. The media in the plates was removed by aspiration, replaced with these test compound solutions and incubated at 37° C. for 1 hour. Following this incubation, the media was removed by aspiration and replaced with buffer containing 0.1M formic acid. The plates were then frozen overnight at −80° C. to achieve complete cell lysis.
The following day, the assay plates were thawed at room temperature. The thawed contents were then transfered to 96-well filter plates (Millipore, Multiscreen) pre-loaded with resin (Biorad, AG1-X8 100-200 mesh, formate form). The plate was filtered using a vacuum manifold and the resin was washed multiple times with water. An elution buffer was then applied (200 μl, 0.2M Ammonium formate/0.1M formic acid) and the resulting eluent was collected, under vacuum, in a 96-well collection plate. Aliquots of the eluent (80 μl) were transferred to filter plates (Whatman, Unifilter GF/C) and dried in a 45° C. oven overnight. Dried plates were counted on a scintillation counter following the addition of an appropriate scintillant (Perkin Elmer Life Sciences, Optiphase Supermix or Hi-Safe 3).

Row | Compound | IC50 [nM]
1 | COc1ccc(C(=O)N2CC3(CCN(CC4CC4)CC3)c3cc(F)ccc32)cc1 [Compound 31, 1′-(cyclopropylmethyl)-1,2-dihydro-5-fluoro-1-(4-methoxy-benzoyl)-spiro[3H-indole-3,4′-piperidine]] | 900
2 | C=CCN1CCC2(CC1)CN(C(=O)c1ccccc1Cl)c1ccc(F)cc12 [Compound 69, 1′-(allyl)-1,2-dihydro-5-fluoro-1-(2-chloro-benzoyl)-spiro[3H-indole-3,4′-piperidine]] | 378
3 | C=CCN1CCC2(CC1)CN(C(=O)c1cc(OC)cc(OC)c1)c1ccc(F)cc12 [Compound 73, 1′-(allyl)-1,2-dihydro-5-fluoro-1-(3,5-dimethoxy-benzoyl)-spiro[3H-indole-3,4′-piperidine]] | 867
4 | C=CCN1CCC2(CC1)CN(C(=O)c1ccc(F)cc1F)c1ccc(F)cc12 [Compound 76, 1′-(allyl)-1,2-dihydro-5-fluoro-1-(2,4-difluoro-benzoyl)-spiro[3H-indole-3,4′-piperidine]] | 936
5 | C=CCN1CCC2(CC1)CN(C(=O)c1ccc([N+](=O)[O-])cc1)c1ccc(F)cc12 [Compound 83, 1′-(allyl)-1,2-dihydro-5-fluoro-1-(4-nitro-benzoyl)-spiro[3H-indole-3,4′-piperidine]] | 757
6 | C=CCN1CCC2(CC1)CN(C(=O)c1cccc3ccccc13)c1ccc(F)cc12 [Compound 85, 1′-(allyl)-1,2-dihydro-5-fluoro-1-(naphthalene-1-carbonyl)-spiro[3H-indole-3,4′-piperidine]] | 381
7 | C=CCN1CCC2(CC1)CN(C(=O)c1cccc(Cl)c1)c1ccc(F)cc12 [Compound 86, 1′-(allyl)-1,2-dihydro-5-fluoro-1-(3-chloro-benzoyl)-spiro[3H-indole-3,4′-piperidine]] | 705
8 | C=CCN1CCC2(CC1)CN(C(=O)c1ccc(F)c(C(F)(F)F)c1)c1ccc(F)cc12 [Compound 88, 1′-(allyl)-1,2-dihydro-5-fluoro-1-(3-trifluoromethyl-4-fluoro-benzoyl)-spiro[3H-indole-3,4′-piperidine]] | 896
9 | C=CCN1CCC2(CC1)CN(C(=O)c1ccc3c(c1)OCO3)c1ccc(F)cc12 [Compound 89, 1′-(allyl)-1,2-dihydro-5-fluoro-1-(benzo[1,3]dioxole-5-carbonyl)-spiro[3H-indole-3,4′-piperidine]] | 989
10 | C=CCN1CCC2(CC1)CN(C(=O)c1cccc(C(Cl)Cl)c1)c1ccc(F)cc12 [Compound 92, 1′-(allyl)-1,2-dihydro-5-fluoro-1-(3-dichloromethyl-benzoyl)-spiro[3H-indole-3,4′-piperidine]] | 592
11 | C=CCN1CCC2(CC1)CN(C(=O)c1cccnc1Cl)c1ccc(F)cc12 [Compound 93, 1′-(allyl)-1,2-dihydro-5-fluoro-1-(2-chloro-pyridine-3-carbonyl)-spiro[3H-indole-3,4′-piperidine]] | 841
12 | O=C(c1ccccc1Cl)N1CC2(CCN(CC3CC3)CC2)c2ccccc21 [Compound 101, 1′-(cyclopropylmethyl)-1,2-dihydro-1-(2-chloro-benzoyl)-spiro[3H-indole-3,4′-piperidine]] | 792
13 | C=CCN1CCC2(CC1)CN(C(=O)c1cccc(C(Cl)Cl)c1)c1ccccc12 [Compound 102, 1′-(allyl)-1,2-dihydro-1-(3-dichloromethyl-benzoyl)-spiro[3H-indole-3,4′-piperidine]] | 939
14 | C=CCN1CCC2(CC1)CN(C(=O)c1cccc3ccccc13)c1ccccc12 [Compound 133, 1′-(allyl)-1,2-dihydro-1-(naphthylene-1-carbonyl)-spiro[3H-indole-3,4′-piperidine]] | 535
15 | O=C(c1ccccc1F)N1CC2(CCN(CC3CC3)CC2)c2cc(F)ccc21 [Compound 139, 1′-(cyclopropylmethyl)-1,2-dihydro-5-fluoro-1-(2-fluoro-benzoyl)-spiro[3H-indole-3,4′-piperidine]] | 728
16 | O=C(c1cccc(F)c1F)N1CC2(CCN(CC3CC3)CC2)c2cc(F)ccc21 [Compound 142, 1′-(cyclopropylmethyl)-1,2-dihydro-5-fluoro-1-(2,3-difluoro-benzoyl)-spiro[3H-indole-3,4′-piperidine]] | 480

Row | Compound | IC50 [nM]
17 | O=C(c1cccc(C(Cl)Cl)c1)N1CC2(CCN(CC3CC3)CC2)c2cc(F)ccc21 [Compound 147, 1′-(cyclopropylmethyl)-1,2-dihydro-5-fluoro-1-(3-dichloromethyl-benzoyl)-spiro[3H-indole-3,4′-piperidine]] | 735
18 | O=C1c2ccccc2-c2cccc(C(=O)N3CC4(CCN(CC5CC5)CC4)c4cc(F)ccc43)c21 [Compound 153, 1′-(cyclopropylmethyl)-1,2-dihydro-5-fluoro-1-(9-oxo-9H-fluorene-1-carbonyl)-spiro[3H-indole-3,4′-piperidine]] | 774
19 | O=C(c1cccc2ccccc12)N1CC2(CCN(CC3CC3)CC2)c2cc(F)ccc21 [Compound 159, 1′-(cyclopropylmethyl)-1,2-dihydro-5-fluoro-1-(naphthylene-1-carbonyl)-spiro[3H-indole-3,4′-piperidine]] | 505
20 | O=C(c1ccc2ccccc2c1)N1CC2(CCN(CC3CC3)CC2)c2cc(F)ccc21 [Compound 160, 1′-(cyclopropylmethyl)-1,2-dihydro-5-fluoro-1-(naphthylene-2-carbonyl)-spiro[3H-indole-3,4′-piperidine]] | 721
21 | O=C(c1cccc(Cl)c1)N1CC2(CCN(CC3CC3)CC2)c2cc(F)ccc21 [Compound 165, 1′-(cyclopropylmethyl)-1,2-dihydro-5-fluoro-1-(3-chloro-benzoyl)-spiro[3H-indole-3,4′-piperidine]] | 757
22 | O=C(N1CC2(CCN(CC3CC3)CC2)c2cc(F)ccc21)C12CC3CC(CC(C3)C1)C2 [Compound 168, 1′-(cyclopropylmethyl)-1,2-dihydro-5-fluoro-1-(adamantane-1-carbonyl)-spiro[3H-indole-3,4′-piperidine]] | 502
23 | C=CCN1CCC2(CC1)CN(S(=O)(=O)c1ccc(Cl)cc1Cl)c1ccc(F)cc12 [Compound 185, 1′-(allyl)-1,2-dihydro-5-fluoro-1-(2,4-dichloro-benzenesulfonyl)-spiro[3H-indole-3,4′-piperidine]] | 956
24 | O=S(=O)(c1ccc(Cl)cc1Cl)N1CC2(CCN(CC3CC3)CC2)c2cc(F)ccc21 [Compound 192, 1′-(cyclopropylmethyl)-1,2-dihydro-5-fluoro-1-(2,4-dichloro-benzenesulfonyl)-spiro[3H-indole-3,4′-piperidine]] | 891
25 | CN1CCC2(CC1)CN(C(=O)c1cccc(C(Cl)Cl)c1)c1ccc(F)cc12 [Compound 199, 1′-(methyl)-1,2-dihydro-5-fluoro-1-(3-dichloromethyl-benzoyl)-spiro[3H-indole-3,4′-piperidine]] | 382
26 | C=CCN1CCC2(CC1)CN(C(=O)c1ccccc1F)c1ccc(OC)cc12 [Compound 204, 1′-(allyl)-1,2-dihydro-5-methoxy-1-(2-fluoro-benzoyl)-spiro[3H-indole-3,4′-piperidine]] | 554
27 | C=CCN1CCC2(CC1)CN(S(=O)(=O)c1ccccc1Cl)c1ccc(F)cc12 [Compound 206, 1′-(allyl)-1,2-dihydro-5-fluoro-1-(2-chloro-benzenesulfonyl)-spiro[3H-indole-3,4′-piperidine]] | 303
28 | C=CCN1CCC2(CC1)CN(S(=O)(=O)c1cc(Cl)c(Cl)s1)c1ccc(F)cc12 [Compound 210, 1′-(allyl)-1,2-dihydro-5-fluoro-1-(4,5-dichloro-thiophene-2-sulfonyl)-spiro[3H-indole-3,4′-piperidine]] | 890
29 | C=CCN1CCC2(CC1)CN(C(=O)c1cc(Cl)sc1Cl)c1ccc(F)cc12 [Compound 211, 1′-(allyl)-1,2-dihydro-5-fluoro-1-(2,5-dichloro-thiophene-3-carbonyl)-spiro[3H-indole-3,4′-piperidine]] | 855
30 | C=CCN1CCC2(CC1)CN(S(=O)(=O)c1ccc(Cl)s1)c1ccc(F)cc12 [Compound 214, 1′-(allyl)-1,2-dihydro-5-fluoro-1-(5-chloro-thiophene-2-sulfonyl)-spiro[3H-indole-3,4′-piperidine]] | 455
31 | C=CCN1CCC2(CC1)CN(C(=O)c1cccnc1SC)c1ccc(F)cc12 [Compound 215, 1′-(allyl)-1,2-dihydro-5-fluoro-1-(2-methylsulfanyl-pyridine-3-carbonyl)-spiro[3H-indole-3,4′-piperidine]] | 607
